Patent US10519153B2, “Fused imidazo-piperidine JAK inhibitors” (THERAVANCE BIOPHARMA R&D IP, LLC, priority 2017, dated 2019)

Tested on: IL-6 stimulated pSTAT3 in CD3+ T cells
Experiment: Inhibition of IL-6 stimulated pSTAT3 in CD3+ T cells
Format: cell-based, human
Description: Assay 10: Cellular JAK Potency Assay: Inhibition of IL-6 Stimulated pSTAT3 in CD3+ T Cells
A protocol analogous to that of Assay 9 was used to determine the potency of the test compound for inhibition of interleuken-6 (IL-6) stimulated STAT3 phosphorylation. An Alexa Fluor 647 conjugated anti-pSTAT3 antibody (pY705, Clone 4/P, BD Biosciences) was used to detect STAT3 phosphorylation.

Row | Structure (SMILES) | inhibition of IL-6 signaling (in words)
1 | CCCN1Cc2[nH]c(-c3n[nH]c4cc(-c5cc(F)c(O)cc5CC)ccc34)nc2C[C@H]1C(=O)N1C[C@@H]2C[C@H]1CN2C [Example 1, ((S)-2-(6-(2-ethyl-5-fluoro-4-hydroxyphenyl)-1H-indazol-3-yl)-5-propyl-4,5,6,7-tetrahydro-3H-imidazo[4,5-c]pyridin-6-yl)((1S,4S)-5-methyl-2,5-diazabicyclo-[2.2.1]heptan-2-yl)methanone] | inhibit IL-6 signaling
2 | CCc1cc(O)c(F)cc1-c1ccc2c(-c3nc4c([nH]3)CN(C(C)C)[C@H](C(=O)N3CC[C@H](N(C)C)C3)C4)n[nH]c2c1 [Example 3] | inhibit IL-6 signaling
